Legend:
NPFF1-R = conditions: read-out: NPFF1-R Ki; Figure 1; ref [29]; cited from earlier work
hNPFF2-R [1] = target: T1, hNPFF2-R (Homo sapiens, UniProt Q9Y5X5); design: method as in earlier work; conditions: inhibition of cAMP production induced by 2 μM forskolin; ref (46); read-out: Functional Activity hNPFF2-R EC50; cited from earlier work
T1 construct: expressed in transfected cells; host or cells: CHO cells (membranes)

hNPFF1-R [2] = target: T2, hNPFF1-R (Homo sapiens, UniProt Q9GZQ6); conditions: inhibition of cAMP production induced by 2 μM forskolin; ref (46); read-out: Functional Activity hNPFF1-R EC50; cited from earlier work
T2 construct: expressed in transfected cells; host or cells: CHO cells
T2 sequence (Q9GZQ6 whole entry): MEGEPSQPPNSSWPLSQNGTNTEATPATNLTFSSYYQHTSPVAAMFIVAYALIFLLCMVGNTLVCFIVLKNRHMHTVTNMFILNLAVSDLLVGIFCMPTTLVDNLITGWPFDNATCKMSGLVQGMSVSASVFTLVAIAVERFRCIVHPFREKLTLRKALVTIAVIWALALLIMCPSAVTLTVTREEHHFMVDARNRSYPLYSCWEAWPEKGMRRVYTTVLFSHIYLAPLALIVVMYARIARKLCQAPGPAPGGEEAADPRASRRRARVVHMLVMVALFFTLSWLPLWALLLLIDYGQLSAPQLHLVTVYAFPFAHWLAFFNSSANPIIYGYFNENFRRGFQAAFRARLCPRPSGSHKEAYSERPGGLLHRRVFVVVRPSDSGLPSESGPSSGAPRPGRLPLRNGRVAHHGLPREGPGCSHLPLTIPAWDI

DOR [3] = target: T3, DOR (Homo sapiens, UniProt P41143); experiment: [35S]GTPγS functional assay (agonist mode) at DOR; type: biochemical; conditions: [35S]GTPγS DOR EC50 ± SEM, agonist mode, standard DPDPE
T3 sequence (P41143 whole entry): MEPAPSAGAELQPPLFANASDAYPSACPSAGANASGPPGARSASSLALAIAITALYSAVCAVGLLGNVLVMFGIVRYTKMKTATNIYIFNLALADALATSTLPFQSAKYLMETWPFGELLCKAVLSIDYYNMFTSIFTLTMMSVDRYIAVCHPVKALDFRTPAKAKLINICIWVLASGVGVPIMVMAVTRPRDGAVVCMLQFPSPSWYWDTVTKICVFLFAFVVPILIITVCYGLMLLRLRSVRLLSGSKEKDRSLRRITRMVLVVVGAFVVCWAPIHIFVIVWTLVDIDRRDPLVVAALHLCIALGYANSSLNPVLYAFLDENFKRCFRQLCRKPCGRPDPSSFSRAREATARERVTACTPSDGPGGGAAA

KOR [4] = target: T4, KOR (Homo sapiens, UniProt P41145); experiment: biochemical; type: binding
T4 sequence (P41145 whole entry): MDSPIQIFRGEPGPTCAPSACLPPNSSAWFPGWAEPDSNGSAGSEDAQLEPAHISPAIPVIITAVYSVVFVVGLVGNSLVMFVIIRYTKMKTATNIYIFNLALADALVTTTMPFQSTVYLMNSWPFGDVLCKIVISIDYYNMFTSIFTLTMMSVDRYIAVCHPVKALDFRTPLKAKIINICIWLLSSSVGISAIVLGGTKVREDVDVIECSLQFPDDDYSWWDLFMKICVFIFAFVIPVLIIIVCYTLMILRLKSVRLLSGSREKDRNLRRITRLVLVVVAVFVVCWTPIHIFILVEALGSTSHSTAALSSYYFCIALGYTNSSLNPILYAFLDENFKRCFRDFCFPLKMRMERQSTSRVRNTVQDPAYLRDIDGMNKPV

C57BL/6J mice [5] = experiment: Anti-hyperalgesia assay (48 °C warm water tail withdrawal assay, NPFF-induced hyperalgesia); type: in vivo, mouse
[6] = In vivo pharmacokinetic study, intravenous; design: species or system Sprague Dawley rats; conditions: 5 mg/kg i.v., rat, mean (n = 6) ± SEM
Method: In vivo pharmacokinetic study. For the evaluation of the in vivo pharmacokinetic parameters of 22b, a pharmacokinetic study was performed in healthy male adult Sprague Dawley rats with in-dwelling jugular catheters weighing 225 ± 25 g. The animals were housed in single occupancy metabolic cages with mesh flooring and urine and feces receptacles. Six animals were dosed with 5 mg/kg intravenously, and the blood samples were collected at the following time points: pre-dose, 0.083, 0.17, 0.33, 0.50, 0.75, 1, 2, 4, 6, 8, and 10 h post-dose. All samples were stored at −80 °C until they were further analyzed. Collected plasma samples were analyzed using a validated UPLC-MS/MS method, and non-compartmental analysis of the plasma concentration data was performed using Phoenix® 6.4.
Bioanalytical method development and validation. A sensitive, accurate, and robust quantitative liquid chromatography tandem mass spectrometry (LC-MS/MS, Waters Corporation, Milford, MA, USA) method was developed and validated according to the FDA guidelines. Separation was achieved using a Waters Acquity I-Class liquid chromatography system equipped with a binary pump, a degasser, a temperature-controlled autosampler, and a column oven. The analyte was separated via gradient elution utilizing LC-MS grade water and methanol acidified with 0.02% trifluoroacetic acid (TFA, % v/v) through a 2.1 × 50 mm ACQUITY UPLC® CSH C18 column with 1.7 μm particle size (PN 186005296, SN 01463729915172). Mass detection was achieved via Waters Xevo TQS Micro triple quadrupole mass spectrometer in positive electrospray ionization (ESI^+) mode with the multiple reaction monitoring (MRM) function. The method was validated in rat plasma for the linearity range of 1–200 ng/mL. The gradient schematic and fragmentation monitoring parameters are reported in Tables S2 and S3 of the Supporting Information.

C57BL/6J mice [7] = experiment: Antinociception assay (55 °C warm water tail withdrawal assay); type: in vivo, mouse
C57BL/6J mice [8] = experiment: Excreta assay (intestinal transit); conditions: 90 min
KOR [9] = target: T4, KOR; experiment: [35S]GTPγS functional assay (agonist mode) at KOR; type: biochemical; conditions: [35S]GTPγS KOR EC50 ± SEM, agonist mode, standard U-69,593
hNPFF1-R [10] = target: T2, hNPFF1-R; experiment: Radioligand competition binding at NPFF1-R; conditions: read-out: Receptor Binding, Ki ± SEM NPFF1-R
DOR [11] = target: T3, DOR; experiment: Radioligand competition binding at DOR; conditions: read-out: Receptor Binding, Ki ± SEM DOR
C57BL/6J mice [12] = experiment: Locomotor testing (CLAMS); type: in vivo, mouse; conditions: 100 nmol i.c.v., 90 min
MOR [13] = target: T5, MOR (Homo sapiens, UniProt P35372); experiment: Radioligand competition binding at MOR
T5 sequence (P35372 whole entry): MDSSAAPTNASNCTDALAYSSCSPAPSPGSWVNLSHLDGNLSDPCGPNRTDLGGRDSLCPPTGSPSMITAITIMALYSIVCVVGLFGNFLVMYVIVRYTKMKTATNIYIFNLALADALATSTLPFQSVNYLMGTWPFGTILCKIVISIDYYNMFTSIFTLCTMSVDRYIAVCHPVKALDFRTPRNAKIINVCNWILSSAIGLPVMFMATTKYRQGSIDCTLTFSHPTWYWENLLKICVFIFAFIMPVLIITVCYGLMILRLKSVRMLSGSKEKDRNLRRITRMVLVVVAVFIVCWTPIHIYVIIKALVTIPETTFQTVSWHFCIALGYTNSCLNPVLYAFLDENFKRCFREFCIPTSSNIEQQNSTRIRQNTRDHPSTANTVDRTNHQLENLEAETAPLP

C57BL/6J mice [14] = experiment: Acute antinociceptive tolerance assay (55 °C warm water tail withdrawal); type: in vivo, mouse; conditions: i.c.v.
hNPFF2-R [15] = target: T1, hNPFF2-R; experiment: Radioligand competition binding at NPFF2-R; conditions: [3H]EYF, transfected CHO cell membranes; read-out: Receptor Binding, Ki ± SEM NPFF2-R
[16] = Metabolic stability in rat liver microsomes; type: in vitro ADME
Method: In vitro metabolism of 22b (1 µM) was studied using Sprague Dawley rat liver microsomes (RLM) in a bench-top shaker for 1 h at 37 ± 0.5 °C. An aliquot (2 μL) of the stock solution (250 µM) was spiked in 0.5 mL of pre-incubated metabolic reaction mixture [50 mM Tris buffer (pH 7.4), 0.5 mg protein/mL of RLM, 20 mM magnesium chloride, and 2 mM NADPH]. Verapamil was used as the positive control to ensure the activity of the liver microsomal enzymes, and a metabolic reaction mixture without NADPH was used as the negative control in the same incubation conditions. An aliquot (40 µL) of the reaction mixture was withdrawn at 0, 5, 10, 15, 30, 45, and 60 min and quenched with 200 µL of ice-cold methanol. Samples were vortex-mixed for 2 min, followed by filtration (Multiscreen, Merck Millipore, Ireland) under vacuum. The filtrate was injected onto a UPLC-MS/MS system.
The hepatic elimination rate constant (k) was calculated directly from the slope of the natural logarithm (percent drug remaining) of the concentration vs. the time profile. In vitro half-life (t1/2), intrinsic clearance (CLint), and hepatic clearance (CLint,h) can be calculated from the equations reported in Figure S3 of the Supporting Information, where [V] is the incubation volume in mL and [P] is the amount of microsomal protein in the incubation mixture.

C57BL/6J mice [17] = experiment: Respiration testing (CLAMS); type: in vivo, mouse; conditions: 90 min
MOR [18] = target: T5, MOR; experiment: [35S]GTPγS functional assay (agonist mode) at MOR; type: biochemical; conditions: [35S]GTPγS MOR EC50 ± SEM
[19] = male, Sprague Dawley, plasma, iv

T1 sequence (Q9Y5X5 whole entry): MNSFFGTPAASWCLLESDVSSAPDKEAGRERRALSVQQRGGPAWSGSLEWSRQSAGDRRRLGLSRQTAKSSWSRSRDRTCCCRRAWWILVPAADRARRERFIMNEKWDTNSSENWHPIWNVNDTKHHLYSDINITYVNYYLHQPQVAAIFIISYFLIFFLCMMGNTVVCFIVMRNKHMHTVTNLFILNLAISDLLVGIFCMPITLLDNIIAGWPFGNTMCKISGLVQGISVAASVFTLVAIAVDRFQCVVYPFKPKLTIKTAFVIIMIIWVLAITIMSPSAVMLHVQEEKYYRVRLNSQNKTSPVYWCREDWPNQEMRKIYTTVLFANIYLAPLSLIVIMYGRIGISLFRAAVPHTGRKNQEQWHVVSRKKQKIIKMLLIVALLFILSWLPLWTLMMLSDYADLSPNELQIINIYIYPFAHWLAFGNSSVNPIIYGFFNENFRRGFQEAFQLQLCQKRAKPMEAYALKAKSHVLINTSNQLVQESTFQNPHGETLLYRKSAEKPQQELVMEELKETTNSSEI

N=C(N)NCCNC(=O)C1(Nc2ccccc2)CCN(Cc2ccccc2)CC1 [compound 2]
Ki (NPFF1-R): 81 ± 17 nM

1DMe: high-affinity peptidic NPFF receptor ligand (YLFQPQRF)
EC50 (hNPFF2-R [1]): 2.7 ± 0.5 nM | EC50 (hNPFF1-R [2]): 71 ± 14 nM

N=C(N)Nc1ccc(C(=C2CCN(Cc3ccccc3)CC2)c2ccccc2)cc1 [Compound 22b, 1-(4-((1-Benzylpiperidin-4-ylidene)(phenyl)methyl)phenyl)guanidine]
EC50 (DOR [3]): 539 ± 93.2 nM | Ki (KOR [4]): 270 ± 43 nM | prevention of NPFF-induced hyperalgesia (screening) (C57BL/6J mice [5]; 30 nmol i.c.v. two hours before NPFF 30 nmol i.c.v.): more moderate, yet still statistically significant, effect | prevention of NPFF-induced hyperalgesia after peripheral pretreatment (C57BL/6J mice [5]; 10 mg/kg i.p. pretreatment, NPFF 30 nmol i.c.v.): significant antagonism | AUC/dose0_inf [6]: 3004.7 ± 108.1 ng·h/mL/mg | C0 [6, 19]: 9150 ± 3740 ng/mL | Vd [6, 19]: 2 ± 0.2 L | clearance [6, 19]: 5 mL/min | half-life [6, 19]: 4.1 ± 0.5 h | k el ([6]; male, Sprague Dawley, plasma, iv, read-out: k (elimination rate constant) (converted)): 5.56e-05 s⁻¹ | antinociceptive activity over time (screening) (C57BL/6J mice [7]; 30 nmol i.c.v., 55 °C): induced the greatest tail withdrawal latencies | antinociceptive response after pretreatment with DOR-selective antagonist naltrindole (C57BL/6J mice [7]; 22b 30 nmol i.c.v., naltrindole 20 mg/kg i.p. 20 min before, 40 min): did not alter the antinociceptive response | antinociceptive response after pretreatment with KOR-selective antagonist nor-BNI (C57BL/6J mice [7]; 22b 30 nmol i.c.v., nor-BNI 10 mg/kg i.p. 24 h before, 40 min): did not alter the antinociceptive response | antinociceptive activity after pretreatment with MOR-selective antagonist β-FNA (C57BL/6J mice [7]; 22b 30 nmol i.c.v., β-FNA 5 mg/kg s.c. 24 h before, 40 min): almost completely abolished | ED50 (C57BL/6J mice [7]; Mus musculus, ip, 10 min, i.p., 10 min after administration, 55 °C, read-out: antinociception ED50 (95% confidence interval)): 3.61 mg/kg | antinociception ED50 (95% confidence interval) (C57BL/6J mice [7]; i.c.v., 40 min after administration, 55 °C): 6.88 (4.71–9.47) nmol | duration of antinociceptive effect (C57BL/6J mice [7]; i.p. administration): no more than 50 min | number of excreted fecal boli (C57BL/6J mice [8]; 30 nmol i.c.v.): 3.5 ± 0.7 boli | number of excreted fecal boli (C57BL/6J mice [8]; 100 nmol i.c.v.): 4.1 ± 0.6 boli | EC50 (KOR [9]): 2710 ± 398 nM | Ki (hNPFF1-R [10]): 929 ± 183 nM | Ki (DOR [11]): 11.4 ± 4.3 nM | effect on ambulation (spontaneous locomotor activity) (C57BL/6J mice [12]): not significantly greater than that of the vehicle | Ki (MOR [13]): 428 ± 33 nM | antinociception ED50 (95% CI), second administration (C57BL/6J mice [14]; given 8 h after a first dose (morphine 3 nmol, 22b 8.7 nmol), 55 °C): 10.8 (5.89–21.1) nmol | rightward shift of antinociceptive dose response (acute tolerance) (C57BL/6J mice [14]; second administration 8 h after first): 1.6 fold | Ki (hNPFF2-R [15]): 272 ± 1 nM | compound remained unchanged after 1 h of incubation ([16]; 1 µM, RLM, with NADPH): 25.5% | stability in negative control reaction mixture ([16]; RLM without NADPH): metabolism of the compound was also observed | half-life at 1 µM ([16]; Sprague Dawley, rat, liver microsomes, pH 7.4, 1 µM, RLM, read-out: in vitro half-life): 0.517 ± 0.0133 h | intrinsic clearance (CLint) ([16]; pooled rat liver microsomes): 0.045 ± 0.001 mL/min per milligram of microsomal protein | effect on respiration rate (C57BL/6J mice [17]; 30 nmol i.c.v.): no marked reduction in respiration | effect on respiration rate (C57BL/6J mice [17]; 100 nmol i.c.v.): increased respiration rate | EC50 (MOR [18]): 576 ± 311 nM

Source: article PMC12251305 (Molecules, 2025)
